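Cells were grown in 96-well plates and exposed to each compound for 48 hours at five concentrations; endpoints were interpolated linearly between bracketing concentrations, or set to the highest concentration if not reached. GI50 is the concentration that inhibits growth by half. The concentration for full growth arrest is given as TGI.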
Tests used:
Test in all cases: NCI anticancer screen, dose series, 48 h
[1] = test system: SK-MEL-28 melanoma
[2] = test system: OVCAR-8 ovarian
[3] = test system: SNB-19 CNS
[4] = test system: HCT-15 colon
[5] = test system: HCC-2998 colon
[6] = test system: KM12 colon
[7] = test system: ACHN renal
[8] = test system: U251 CNS
[9] = test system: OVCAR-4 ovarian
[10] = test system: K-562 leukemia

| SMILES | GI50 [1] [µM] | TGI [1] [µM] | GI50 [2] [µM] | TGI [2] [µM] | GI50 [3] [µM] | TGI [3] [µM] | GI50 [4] [µM] | TGI [4] [µM] | GI50 [5] [µM] | TGI [5] [µM] | GI50 [6] [µM] | TGI [6] [µM] | GI50 [7] [µM] | TGI [7] [µM] | GI50 [8] [µM] | TGI [8] [µM] | GI50 [9] [µM] | TGI [9] [µM] | GI50 [10] [µM] | TGI [10] [µM] |
| --- | --- | --- | --- | --- | --- | --- | --- | --- | --- | --- | --- | --- | --- | --- | --- | --- | --- | --- | --- | --- |
| COc1cc(C)c(N(C)C(=O)CN(C)C)cc1Nc1nc(Nc2cccc(F)c2C(N)=O)c2cc[nH]c2n1 | > 25 | > 25 | > 25 | > 25 | > 25 | > 25 | > 25 | > 25 | > 23.1 | > 25 | > 25 | > 25 | > 25 | > 25 | > 25 | > 25 | > 25 | > 25 | 18.1 | > 25 |
| CCCCCn1ncc(-c2c(O)c(O)cc3c(O)c(-c4c(C)cc5c(-c6cnn(CCCCC)n6)c(O)c(O)cc5c4O)c(C)cc23)n1 | 0.306 | 6.36 | 0.125 | 3.2 | 0.115 | 5.26 | 0.0976 | 5.01 | 0.471 | 4.24 | 0.101 | 5.25 | 0.128 | 4.27 | 0.0351 | 1.89 | 0.176 | 4.49 | 0.0837 | 8.44 |
| CN([N-]C(=O)CC(=O)[N-]N(C)C(=S)c1ccccc1)C(=S)c1ccccc1.[Cu+2] | 0.035 | 0.127 | 0.0598 | 0.232 | 0.129 | 0.261 | 0.0228 | 0.13 | 0.0598 | 0.176 | 0.0353 | 0.152 | 0.0825 | 0.22 | 0.0331 | 0.125 | < 0.01 | 0.0619 | < 0.01 | – |
| COc1cc2c(c(OC)c1OC)C(=O)c1c-2n(CCCN)c(=O)c2cc([N+](=O)[O-])ccc12 | 1.76 | 3.97 | – | – | 1.5 | 5.15 | – | – | 0.299 | 0.804 | 0.161 | 0.369 | – | – | – | – | 0.372 | 1.47 | 2.86 | 7.98 |
| COc1ccc2c(CCNS(=O)(=O)c3ccccc3)c(C(C)=O)[nH]c2c1[N+](=O)[O-] | – | – | – | > 100 | – | > 100 | – | > 100 | – | > 100 | – | > 100 | – | > 100 | – | > 100 | – | > 100 | – | > 100 |
| O=C(CN1C(=O)c2ccccc2C1=O)OC1C=CCCC1 (stereo unspecified) | – | > 100 | – | > 100 | – | > 100 | – | > 100 | – | > 100 | – | > 100 | – | > 100 | – | > 100 | – | > 100 | – | > 100 |
| CN1CCN(c2ccc3nc(-c4ccc5nc(-c6ccc(C(F)(F)F)cc6)[nH]c5c4)[nH]c3c2)CC1 | 1.77 | 3.34 | 2.02 | 4.7 | – | – | 7.48 | 24.5 | 1.98 | 3.57 | 1.74 | 3.27 | 3.94 | 17.7 | 1.62 | 3.04 | 1.74 | 3.45 | – | – |
| O=c1c2ccccc2c(C=NCCNCCO)c2oc3ccccc3n12 | – | – | 4.88 | 19.7 | 6.33 | 19.6 | 10.1 | 23.9 | 13.1 | 25.8 | 10.4 | 22.1 | 3.54 | 14.9 | 6.24 | 19.5 | 16.6 | 36 | 4.31 | 16.4 |
| CC(C)NCCCNC1=C(Cl)C(=O)c2ccccc2C1=O | 2.16 | 3.92 | 2.13 | 5.1 | 12.8 | 26 | 1.95 | 3.96 | 2.14 | 4.49 | 9.59 | 22.3 | 12.6 | 25.8 | 2.7 | 6.82 | – | – | 2.05 | 4.92 |
| c1ccc2c(c1)[Se]c1ccccc1[Se]2 | – | > 100 | – | > 100 | – | > 100 | – | – | – | – | – | > 100 | – | > 100 | – | > 100 | – | 67.1 | – | > 100 |
| CN1NC(c2ccccc2)=C(C#N)C(=O)CC1c1ccccc1Cl (stereo unspecified) | – | > 100 | – | – | – | > 100 | – | > 100 | – | > 100 | – | > 100 | – | > 100 | – | > 100 | – | > 100 | – | – |
| CP(=O)(CCSc1ccccc1)c1ccccc1 (stereo unspecified) | – | > 100 | – | > 100 | – | > 100 | – | > 100 | – | > 100 | – | – | – | > 100 | – | > 100 | – | > 100 | – | > 100 |
| O=c1c2cc(-c3ccccc3)sc2nc2sc(-c3ccccc3)nn12 | – | – | – | > 100 | – | > 100 | – | > 100 | – | – | – | > 100 | – | – | – | > 100 | – | > 100 | – | > 100 |
| CC(C)(C)OC(=O)N(CCCn1c2c(c3ccccc3c1=O)C(=O)c1ccccc1-2)CCN(CCCn1c2c(c3ccccc3c1=O)C(=O)c1ccccc1-2)C(=O)OC(C)(C)C | 37 | > 50 | 24.6 | > 50 | 37.8 | > 50 | 24.2 | > 50 | – | – | > 50 | > 50 | 11.2 | 48.9 | 15.5 | > 50 | > 50 | > 50 | 21.3 | > 50 |
| COc1cc2c(C#N)n3c(c2cc1OC)C(=O)C(c1ccccc1)Oc1ccccc1-3 (stereo unspecified) | > 100 | > 100 | 2.76 | > 100 | 3.53 | > 100 | – | – | > 100 | > 100 | 3.36 | > 100 | – | – | 2.77 | > 100 | 2.89 | > 100 | 3.08 | > 100 |
| CO/N=C(\COc1ccc2c(=O)cc(-c3ccccc3)oc2c1)c1ccc(OC)cc1 | > 100 | > 100 | > 100 | > 100 | – | – | > 100 | > 100 | > 100 | > 100 | 81.4 | > 100 | > 100 | > 100 | > 100 | > 100 | 56.2 | > 100 | > 100 | > 100 |
